Test results reported in patent US11129867B2, “Method of treating cancer cells” (priority 2017, dated 2021).
Where a SMILES comes first, the peptide text is derived from it. The star is where a group is joined. X1 = CN(C)c1ccc2c(-c3ccc(C(=O)*)cc3C(=O)[O-])c3ccc(=[N+](C)C)cc-3oc2c1

System: mitochondria of Ca922 cells
Experiment: Immunofluorescence staining of TOM20 and cytochrome-c
Type: cell-based, human
Conditions: Ca922, different dose, 8 or 24 hours, FIG. 7
Experimental: Ca922 cells were treated with different doses of TMR-GBP for 8 or 24 hours and then fixed with 4% formaldehyde. Representative images showing the staining of mitochondria marker TOM20 and cytochrome-c. Scale bar indicates 10 μm.
Immunofluorescence Staining
Cells grown on coverslips were washed with 1×PBS and fixed by PTEMF buffer (20 mM PIPES pH 6.8, 0.2% Triton X-100, 10 mM EGTA, 1 mM MgCl2, and 4% formaldehyde) or 4% paraformaldehyde for 10 minutes at room temperature. Then, fixation buffer was replaced with 1×PBST and the cells were washed with 1×PBST for another 10 minutes at room temperature. Coverslips were washed with 1×PBST twice gently and incubated with primary antibodies at room temperature for 1 hour. Next, washed with PBST for three times (2, 2, 5 minutes). Afterwards, coverslips were cultured in Alex Fluor-conjugated secondary antibodies and DAPI at room temperature for 30 minutes, washed three times (2, 2, 5 minutes), rinsed with ddH2O and mounted with mounting medium. Antibodies concentration used in this analysis is 1:1000 dilution. Images were acquired with specific fluorescence wavelength by Leica DMI6000 inverted microscope equipped with HCX PL FL 100λ/NA1.40 objective and EMCCD camera. All images were analyzed by MetaMorph software.

SMILES: CN(C)c1ccc2c(-c3ccc(C(=O)N[C@@H](CC(N)=O)C(=O)N[C@@H](Cc4ccc(O)cc4)C(=O)N[C@@H](CCCNC(=N)N)C(=O)N[C@@H](Cc4c[nH]c5ccccc45)C(=O)N[C@@H](CCCNC(=N)N)C(=O)N[C@@H](CS)C(=O)N[C@@H](CCCCN)C(=O)N[C@@H](CC(N)=O)C(=O)N[C@@H](CCC(N)=O)C(=O)N[C@@H](CC(N)=O)C(=O)O)cc3C(=O)[O-])c3ccc(=[N+](C)C)cc-3oc2c1 [TMR-GBP] (X1-NYRWRCKNQN-OH; N-terminus and C-terminus assumed)
- cytochrome-c release: Cytochrome-c release upon TMR-GBP treatment was also detected
- morphology of mitochondria (TOM20): became fragmented when the concentration of TMR-GBP was increased or the treatment time was extended
